# Measurements from patent US20260335468A1, “MOLECULAR RADIOAFTERGLOW PROBES FOR CANCER RADIODYNAMIC THERANOSTICS” (NANYANG TECHNOLOGICAL UNIVERSITY, priority 2023, published 2026).
# Experiments:
# [1] = Radio afterglow spectra, intensity and half-life of luminophores in PBS after X-ray; assay type: physicochemical; conditions: for radio afterglow brightness / intensity: X-ray irradiation; for radio afterglow intensity increase versus iodine-free counterpart: 100 μM, PBS pH 7.4, 50% DMSO, X-ray 5 mGy
# Protocol: The optical properties of DPAs and IDPAs were investigated in an aqueous solution (FIGS. 2 and 3). […] Their half-lives ranged from 9.2 to 196.8 min (FIG. 4e).
# DPAs or IDPAs (100 μM) in 0.01 M PBS (pH 7.4, 50% DMSO) were irradiated by X-rays at 250 μGy s^−1 for 20 s (total, 5 mGy) under the specific setup parameter of 10 kV and 75 μA. Then, the radio afterglow signal was collected with an IVIS imaging system under the bioluminescence mode with an open filter and an acquisition time of 60 s. Finally, the radio afterglow intensities were quantified by a region-of-interest analysis using Living Image 4.3 software. In addition, the radio afterglow spectra of the candidates were acquired under the same test conditions with specific emission filters, and time courses of the signal were recorded as a function of time.
# [2] = ^1O2 generation upon X-ray irradiation (ESR, TEMP trap); assay type: physicochemical; conditions: for ^1O2 generation / radiodynamic activity: X-ray irradiation, ESR
# Protocol: To study ^1O2 generation, a mixture of DPAS or IDPAS (100 M) and TEMP (10 mM) in PBS (0.01 M, pH 7.4, 50% DMSO) was irradiated by X-rays at 2 Gy (100 mGy s^−1 for 20 s) or 5 mGy (250 μGy s^−1 for 20 s). The ESR signals of the mixture were recorded with a Bruker A300 instrument. The ESR signal of the free radical 2,2,6,6-tetramethyl-1-piperidinyloxyl (g=2.0060) was generated by the reaction of ^1O2 with TEMP. The ^1O2 quencher NaN3 (1 mM) was added to validate the afterglow mechanism of IDPASu. Additionally, other commercially available radio sensitizers (such as acridine orange, hematoporphyrin and verteporfin) were measured and compared. The procedure of block depths was similar to that of the tissue penetration depth study and the ^1O2 generation for different depth tissues was measured. The ESR signal changes of MRAP in the absence or presence of CatB were measured in a similar way. The ESR signals of 2,2,6,6-tetramethyl-1-piperidinyloxyl from the reaction of ^1O2 with TEMP were plotted as a function of the concentration of ^1O2, which was generated by the addition of NaOCl to H2O2. This generated the standard curve between the ESR intensity and ^1O2 concentration.
Structure (SMILES),radio afterglow brightness / intensity [1],^1O2 generation / radiodynamic activity [2],^1O2 generation versus that of IDPAs ([2]; X-ray 5 mGy),radio afterglow intensity increase versus iodine-free counterpart [1]
COC(=C1C2CC3CC(C2)CC1C3)c1c(/C=C/C2=CC(=C(C#N)C#N)c3ccccc3O2)cc(I)c(O)c1I [DIDPAO],extremely low,slightly increase,,
COC(=C1C2CC3CC(C2)CC1C3)c1c(/C=C/C2=CC(=C(C#N)C#N)c3ccccc3S2)cc(I)c(O)c1I [DIDPAS],extremely low,slightly increase,~ 1.2 fold,
"COC(=C1C2CC3CC(C2)CC1C3)c1cc(O)ccc1/C=C/C1=CC(=C(C#N)C#N)c2ccccc2S1 [DPASu, DBTP-phenoxy-adamantylidene]",,generation of ^1O2,,
COC(=C1C2CC3CC(C2)CC1C3)c1cc(O)c(I)cc1/C=C/C1=CC(=C(C#N)C#N)c2ccccc2O1 [IDPAO],,,,~ 1.62 fold
COC(=C1C2CC3CC(C2)CC1C3)c1cc(O)c(I)cc1/C=C/C1=CC(=C(C#N)C#N)c2ccccc2[Se]1 [IDPASe],,,,6.65 fold
